T1: recombinant human lysophosphatidylcholine acyltransferase 3 (rhLPCAT3) (Homo sapiens, UniProt Q6P1A2)
T1 construct: gene LPCAT3; human LPCAT3 (BC065194.1) with HRV 3C site and C-terminal Twin-strep-tag, expressed in Sf9 cells, purified in DDM
T1 sequence (Q6P1A2 2-487): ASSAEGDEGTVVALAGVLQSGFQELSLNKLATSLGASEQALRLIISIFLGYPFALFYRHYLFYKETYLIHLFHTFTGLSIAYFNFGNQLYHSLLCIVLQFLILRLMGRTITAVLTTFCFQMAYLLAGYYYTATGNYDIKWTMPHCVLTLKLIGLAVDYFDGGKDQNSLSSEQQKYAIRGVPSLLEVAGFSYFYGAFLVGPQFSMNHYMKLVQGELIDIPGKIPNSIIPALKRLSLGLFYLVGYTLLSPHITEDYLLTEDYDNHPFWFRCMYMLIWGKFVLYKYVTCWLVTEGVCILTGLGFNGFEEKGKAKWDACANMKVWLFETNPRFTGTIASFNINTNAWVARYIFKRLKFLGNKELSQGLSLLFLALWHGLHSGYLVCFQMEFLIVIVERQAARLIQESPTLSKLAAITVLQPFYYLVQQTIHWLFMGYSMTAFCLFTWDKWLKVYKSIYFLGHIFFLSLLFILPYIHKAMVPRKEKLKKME


Tests used:
[1] = molecular target: T1, recombinant human lysophosphatidylcholine acyltransferase 3 (rhLPCAT3); test: reversed-phase HPLC fluorescence assay of NBD-PC formation by purified rhLPCAT3; format: biochemical
[2] = substrate: CCCCC/C=C\C/C=C\C/C=C\C/C=C\CCCC(=O)SCCNC(=O)CCNC(=O)[C@H](O)C(C)(C)COP(=O)(O)OP(=O)(O)OC[C@H]1O[C@@H](n2cnc3c(N)ncnc32)[C@H](O)[C@@H]1OP(=O)(O)O; test: bisubstrate kinetics (Km) of purified enzyme, reversed-phase HPLC with fluorescence detection; format: biochemical, Homo sapiens

Molecule | IC50 [1] [µM] | Km [2] [µM]
CCCOC(=O)c1ccc(N2C(=O)C(Cl)=C(Cl)C2=O)cc1 [TSI-10] | 174 ± 1.04 | 
recombinant human lysophosphatidylcholine acyltransferase 3 (rhLPCAT3) (Homo sapiens) (protein, human LPCAT3 (BC065194.1) with HRV 3C site and C-terminal Twin-strep-tag, expressed in Sf9 cells, purified in DDM) ASSAEGDEGTVVALAGVLQSGFQELSLNKLATSLGASEQALRLIISIFLGYPFALFYRHYLFYKETYLIHLFHTFTGLSIAYFNFGNQLYHSLLCIVLQFLILRLMGRTITAVLTTFCFQMAYLLAGYYYTATGNYDIKWTMPHCVLTLKLIGLAVDYFDGGKDQNSLSSEQQKYAIRGVPSLLEVAGFSYFYGAFLVGPQFSMNHYMKLVQGELIDIPGKIPNSIIPALKRLSLGLFYLVGYTLLSPHITEDYLLTEDYDNHPFWFRCMYMLIWGKFVLYKYVTCWLVTEGVCILTGLGFNGFEEKGKAKWDACANMKVWLFETNPRFTGTIASFNINTNAWVARYIFKRLKFLGNKELSQGLSLLFLALWHGLHSGYLVCFQMEFLIVIVERQAARLIQESPTLSKLAAITVLQPFYYLVQQTIHWLFMGYSMTAFCLFTWDKWLKVYKSIYFLGHIFFLSLLFILPYIHKAMVPRKEKLKKME |  | 11.03 ± 0.51
